Results on four molecules are retold here after patent publication US9908875B2, “Apoptosis signal-regulating kinase inhibitors” (Gilead Sciences, Inc., priority 2013, dated 2018).

Chain of recombinant human ASK1 kinase (Q99683 whole entry): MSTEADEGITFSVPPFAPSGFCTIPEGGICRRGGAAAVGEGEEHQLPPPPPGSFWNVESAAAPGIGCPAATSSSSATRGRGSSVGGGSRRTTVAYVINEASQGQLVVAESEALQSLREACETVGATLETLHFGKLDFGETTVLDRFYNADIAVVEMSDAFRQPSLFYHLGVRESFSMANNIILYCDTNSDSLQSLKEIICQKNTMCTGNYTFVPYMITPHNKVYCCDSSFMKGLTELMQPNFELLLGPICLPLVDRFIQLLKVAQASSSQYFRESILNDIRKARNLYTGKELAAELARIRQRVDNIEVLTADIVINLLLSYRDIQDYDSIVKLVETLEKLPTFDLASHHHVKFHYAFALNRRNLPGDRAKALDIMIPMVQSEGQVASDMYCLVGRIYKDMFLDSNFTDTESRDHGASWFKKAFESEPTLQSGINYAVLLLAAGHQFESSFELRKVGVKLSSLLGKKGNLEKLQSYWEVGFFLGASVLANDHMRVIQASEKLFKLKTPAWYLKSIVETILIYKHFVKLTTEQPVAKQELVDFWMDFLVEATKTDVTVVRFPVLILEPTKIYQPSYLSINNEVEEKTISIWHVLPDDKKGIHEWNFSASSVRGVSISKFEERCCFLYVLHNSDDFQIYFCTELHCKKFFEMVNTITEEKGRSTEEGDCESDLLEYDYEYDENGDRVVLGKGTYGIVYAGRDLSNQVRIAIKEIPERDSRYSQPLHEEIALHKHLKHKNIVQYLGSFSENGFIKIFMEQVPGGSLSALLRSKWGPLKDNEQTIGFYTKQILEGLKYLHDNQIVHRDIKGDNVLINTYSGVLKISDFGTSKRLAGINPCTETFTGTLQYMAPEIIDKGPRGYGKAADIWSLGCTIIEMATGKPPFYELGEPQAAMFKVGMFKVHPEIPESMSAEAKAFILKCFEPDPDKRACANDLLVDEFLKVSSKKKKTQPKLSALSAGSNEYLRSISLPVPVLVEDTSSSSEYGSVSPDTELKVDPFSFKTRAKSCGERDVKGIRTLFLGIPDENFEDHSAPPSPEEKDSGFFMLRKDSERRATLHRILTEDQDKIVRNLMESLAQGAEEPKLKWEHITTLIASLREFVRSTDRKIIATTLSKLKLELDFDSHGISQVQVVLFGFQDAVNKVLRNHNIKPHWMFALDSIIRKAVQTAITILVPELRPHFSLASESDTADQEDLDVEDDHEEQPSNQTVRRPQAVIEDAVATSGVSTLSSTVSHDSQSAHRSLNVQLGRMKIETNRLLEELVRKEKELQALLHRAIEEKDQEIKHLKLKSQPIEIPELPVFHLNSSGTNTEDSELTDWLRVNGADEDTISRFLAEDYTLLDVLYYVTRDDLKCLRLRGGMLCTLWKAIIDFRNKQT

The assay addresses recombinant human ASK1 kinase (Homo sapiens (Human), UniProt Q99683). The assay is described as follows: TR-FRET ASK1 (Apoptosis Signal-Regulating Kinase 1) kinase assay. Type of assay: biochemical. The following applies: 4 nM ASK1, 1 μM STK3 peptide substrate, 100 μM ATP, HTRF detection; average of quadruplicate determination; read-out: IC50 (nM), activities of the compounds of Formula (I) to ASK1. An excerpt: I. TR-FRET ASK1 (Apoptosis Signal-Regulating Kinase 1) Kinase Assay
To evaluate the inhibitory activity of compounds of the invention against ASK1 (Apoptosis Signal-regulating Kinase 1) kinase, its activity was examined using a TR-FRET ASK1 kinase assay which determined the amount of phosphate transferred to a peptide substrate from ATP.
Dephosphorylated recombinant human ASK1 kinase was from Gilead Sciences. Small molecule kinase inhibitor staurosporine (Catalogue #S6942) and dithiothreitol (DTT, catalogue #43815-5G) were obtained from Sigma Chemicals (St. Louis, Mo.). ATP (catalogue #7724) was from Affymetrix (Santa Clara, Calif.) and test compounds were from Gilead Sciences. HTRF KinEASE™-STK S3 kit was obtained from Cisbio (Bedford, Mass.). All other reagents were of the highest grade commercially available.
The assay measures the phosphorylation level of a biotinylated peptide substrate by the ASK1 kinase using HTRF detection. This is a competitive, time-resolved fluorescence resonance energy transfer (TR-FRET) immunoassay, based on HTRF® KinEASE™-STK manual from Cisbio. Test compound, 1 μM STK3 peptide substrate, 4 nM of ASK1 kinase were incubated with 10 mM MOP buffer, pH. 7.0 containing 10 mM Mg-acetate, 0.025% NP-40, 1 mM DTT, 0.05% BSA and 1.5% glycerol for 30 minutes then 100 μM ATP was added to start the kinase reaction and incubated for 3 hr. Peptide antibody labeled with 1× Eu^3+ Cryptate buffer containing 10 mM EDTA and 125 nM Streptavidin XL665 were added to stop the reaction and phosphorylated peptide substrate was detected using Envision 2103 Multilabeled reader from PerkinElmer. The fluorescence was measured at 615 nm (Cryptate) and 665 nm (XL665) and a ratio of 665 nm/615 nm was calculated for each well. The resulting TR-FRET level (a ratio of 665 nm/615 nm) was proportional to the phosphorylation level. Under these assay conditions, the degree of phosphorylation of peptide substrate was linear with time and concentration for the enzyme. The assay system yielded consistent results with regard to Km and specific activities for the enzyme. For inhibition experiments (IC50 values), activities were performed with constant concentrations of ATP, peptide and several fixed concentrations of inhibitors. Staurosporine, the nonselective kinase inhibitor, was used as the positive control. All enzyme activity data are reported as an average of quadruplicate determination.
The IC50 values were calculated following equation: y=Range/{1+(x/IC50)^s}+Background where x and y represent the concentration of inhibitors and enzyme activity, respectively. Enzyme activity is expressed as the amount of Phosphate incorporated into substrate peptide from ATP. Range is the maximum y range (no inhibitor, DMSO control) and s is a slope factor.
On the technique in general: TR-FRET usually uses a lanthanide donor and a delayed reading to cut background.
The IC50 is the concentration needed to halve the response being measured. Take `O=C(Nc1csc(-c2nncn2C2CC2)n1)c1cc(-n2cnc(C3CC3)c2)c(N2CCN3CCCC3C2)cn1` (stereo not shown) [Compound 15, 5-(3,4,6,7,8,8a-hexahydro-1H-pyrrolo[1,2-a]pyrazin-2-yl)-4-(4-cyclopropylimidazol-1-yl)-N-[2-(4-cyclopropyl-1,2,4-triazol-3-yl)-1,3-thiazol-4-yl]pyridine-2-carboxamide]: the IC50 was found to be 2.7 nM.

Turning to `C[C@H](n1cnnc1-c1nc(NC(=O)c2cc(-n3cnc(C4CC4)c3)c(N3CC(C)(C#N)C3)cn2)cs1)C(F)(F)F` [Compound 24, (S)-5-(3-cyano-3-methylazetidin-1-yl)-4-(4-cyclopropyl-1H-imidazol-1-yl)-N-(2-(4-(1,1,1-trifluoropropan-2-yl)-4H-1,2,4-triazol-3-yl)thiazol-4-yl)picolinamide], the IC50 was determined as 1.4 nM.

For the molecule `COC1CCN(c2cnc(C(=O)Nc3csc(-c4nncn4[C@@H](C)C(F)(F)F)n3)cc2-n2cnc(C3CC3)c2)C1` (stereo partly drawn) [Compound 28, 4-(4-cyclopropyl-1H-imidazol-1-yl)-5-(3-methoxypyrrolidin-1-yl)-N-(2-(4-((S)-1,1,1-trifluoropropan-2-yl)-4H-1,2,4-triazol-3-yl)thiazol-4-yl)picolinamide], the IC50 worked out at 1.9 nM.

Take `C[C@H](n1cnnc1-c1nc(NC(=O)c2cc(-n3cnc(C4CC4)c3)c(N3CCN(CC(F)(F)F)CC3)cn2)cs1)C(F)(F)F` [Compound 33, (S)-4-(4-cyclopropyl-1H-imidazol-1-yl)-5-(4-(2,2,2-trifluoroethyl)piperazin-1-yl)-N-(2-(4-(1,1,1-trifluoropropan-2-yl)-4H-1,2,4-triazol-3-yl)thiazol-4-yl)picolinamide]: the IC50 was 1.2 nM.
